From patent US6852726B2, “Substituted indoles as alpha-1 agonists” (Syntex LLC, priority 2002, dated 2005)

Columns and labels:
[1] = target: T1, alpha-1A adrenoceptors expressed in CHO-K1 cells (clone 13) (Homo sapiens, UniProt P35348); experiment: Functional assay for alpha-1A/L agonist activity (FLIPR, Fluo-3 intracellular calcium); assay type: cell-based; details: for IA (intrinsic activity): maximum response relative to full agonist norepinephrine bitartrate, CHO-K1 alpha-1A cells
T1 construct: expressed in transfected cells; host or cells: CHO-K1 (clone 13)
T1 sequence (P35348 1-466): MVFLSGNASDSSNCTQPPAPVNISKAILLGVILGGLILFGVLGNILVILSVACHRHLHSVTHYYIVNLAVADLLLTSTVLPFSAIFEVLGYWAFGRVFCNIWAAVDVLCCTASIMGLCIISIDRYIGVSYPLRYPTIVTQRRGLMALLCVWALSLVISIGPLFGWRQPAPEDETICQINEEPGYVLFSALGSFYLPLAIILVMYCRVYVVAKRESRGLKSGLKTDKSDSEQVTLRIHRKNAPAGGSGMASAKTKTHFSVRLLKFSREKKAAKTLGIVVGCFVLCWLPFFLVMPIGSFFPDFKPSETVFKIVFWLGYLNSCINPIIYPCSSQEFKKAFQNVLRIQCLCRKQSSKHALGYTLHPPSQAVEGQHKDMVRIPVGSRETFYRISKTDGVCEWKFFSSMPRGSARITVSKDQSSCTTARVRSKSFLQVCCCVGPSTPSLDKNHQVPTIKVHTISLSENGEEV
Excerpt: The inhibitory activity of compounds of this invention in vitro was examined using fluorescent dye determination of intracellular calcium concentrations as described in Example 6.
Functional Assay for Alpha-1A/L Agonist Activity
The inhibitory activity of compounds of this invention in vitro was examined using fluorescent dye determination of intracellular calcium concentrations.
Chinese hamster ovary cells CHO-K1 expressing the alpha-1A adrenoceptors (clone 13) are washed 4 times (approx. 300 μL/well) with fluorometric imaging plate reader (FLIPR) buffer (Hank's buffered saline solution (HBSS), 2 mM CaCl2, 10 mM HEPES, 2,5 mM probenecid, 100 μM ascorbic acid), with a final volume of 150 μL/well. Cells are loaded with 50 μL/well of 8 μM Fluo-3 AM (Molecular Probes, Eugene, Oreg.), for a final concentration of 2 μM Fluo-3 AM. Cells are then incubated for 60 min at 37° C. Following dye loading, cells are washed 4 times (approx. 300 μL/well) with FLIPR buffer with a final volume of 150 μL/well.
The Test compound, control compound and reference compound are run in quadruplicate, 8-point curves on each plate with a final assay concentration range of 10^−4M to 10^−11M for each compound. All compounds are dissolved in DMSO at 10 mM, and serially diluted in FLIPR buffer.
The assay plate is placed in the FLIPR incubation chamber and a baseline fluorescence measurement (excitation @ 488 nm and emission @ 510-570 nm) is obtained (15 sec interval). An experimental run is then commenced. The reaction is started with the addition of 50 μL/well (at 4× final concentration) of test, control, or reference compound solution from the agonist plate to the assay plate to all 96 wells simultaneously. Fluorescence is measured for 120 sec at 1 sec intervals. Then, a second addition of 5 μM ionomycin (50 μL/well from 5× concentration ionomycin plate) is added to the assay plate. Fluorescence is measured for 30 sec at 1 sec intervals. All experiments are conducted at room temperature.
For each assay plate, responses (increase in peak fluorescence) in each well following addition of agonist (test, control and reference) are determined. These responses may be expressed as raw CFU (Corrected Fluorescence Units), as a % maximum ionomycin response or other unit as determined by the investigator.
For test compound, control compound (Noerepinephrine (NE) bitartrate), and reference compound, the concentration producing a 50% increase in control response (EC50) is determined using iterative curve-fitting methods. Excel spreadsheet or Kaleidagraph software are used to fit data to the general logistic function (E=B+Emax·A^nH/A^nH+EC50^nH), where B is the corrected baseline fluorescence units (defined as zero), A is the concentration of agonist added and nH is the Hill slope (constrained to unity). EC50 values and maxima (Emax) for each curve can be estimated objectively using this software.
In addition the intrinsic activity (α) is determined. Intrinsic activity is defined as the maximum response to test agonist divided by the maximum response to a full agonist acting through the same receptor. For these experiments, the full agonist is defined as Norepinephrine (NE) bitartrate (control).

[2] = CHO-K1 cells expressing alpha-1A adrenoceptors, FLIPR calcium fluorescence, room temperature

Compound | pEC50 [1, 2] | IA (intrinsic activity) [1] | EC50 [1, 2] | melting point
6-Bromo-1-(4,5-dihydro-1H-imidazol-2-ylmethyl)-1H-indole-3-carboxylic acid dimethylamide [Example 17] | 8.34 | 1.02 |  | 
Cc1c(S(C)(=O)=O)c2c(S(C)(=O)=O)cccc2n1CC1=NCCN1 [1-(4,5-Dihydro-1H-imidazol-2-ylmethyl)-3,4-bis-methanesulfonyl-2-methyl-1H-indole] |  | 1.04 | 1050 nM | 
Cc1c(S(C)(=O)=O)c2ccc(S(C)(=O)=O)cc2n1CC1=NCCN1 [1-(4,5-Dihydro-1H-imidazol-2-ylmethyl)-3,6-bis-methanesulfonyl-2-methyl-1H-indole] |  | 0.18 | 60300 nM | 
CS(=O)(=O)c1cn(CC2=NCCN2)c2ccccc12 [1-(4,5-Dihydro-1H-imidazol-2-ylmethyl)-3-methanesulfonyl-1H-indole] |  | 1.07 | 2.29 nM | 
Cc1c(S(C)(=O)=O)c2ccccc2n1CC1=NCCN1 [1-(4,5-Dihydro-1H-imidazol-2-ylmethyl)-3-methanesulfonyl-2-methyl-1H-indole] |  | 1.00 | 0.832 nM | 
Cc1c(S(C)(=O)=O)c2cccc(C(F)(F)F)c2n1CC1=NCCN1 [1-(4,5-Dihydro-1H-imidazol-2-ylmethyl)-3-methanesulfonyl-2-methyl-7-trifluoromethyl-1H-indole] |  | 0.96 | 141 nM | 
COc1ccc2c(S(C)(=O)=O)c(C)n(CC3=NCCN3)c2c1 [1-(4,5-Dihydro-1H-imidazol-2-ylmethyl)-3-methanesulfonyl-6-methoxy-2-methyl-1H-indole] |  | 1.05 | 10 nM | 
Cc1ccc2c(c1)c(S(C)(=O)=O)c(C)n2CC1=NCCN1.Cl [1-(4,5-Dihydro-1Hmidazol-2-ylmethyl)-3-methanesulfonyl-2,5-dimethyl-1H-indole] |  | 0.93 | 23.4 nM | 
CN(C)S(=O)(=O)c1cn(CC2=NCCN2)c2cc(Cl)ccc12 [6-Chloro-1-(4,5-dihydro-1H-imidazol-2-ylmethyl)-1H-indole-3-sulfonic acid dimethylamide] |  | 1.00 | 9.12 nM | 
Cc1c(S(C)(=O)=O)c2cccc(Cl)c2n1CC1=NCCN1 [Example 4, 7-Chloro-1-(4,5-dihydro-1H-imidazol-2-ylmethyl)-3-methanesulfonyl-2-methyl-1H-indole] |  |  |  | 221 to 223 °C
